Experimental data published in patent US10669268B2, “Bicyclic derivatives” (Hoffmann-La Roche Inc., priority 2012, dated 2020).

Target: ATX (human His-tagged) (Homo sapiens (Human), UniProt Q13822)
Assay: Human ATX enzyme inhibition assay (fluorescence quenching, MR121 substrate)
Assay type: biochemical
Settings: 30 nM ATX, 1 μM MR121 substrate, 30° C., pH 8.0
How it was run: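 Tris-HCl buffer at pH 8.0 contained 140 mM NaCl, 5 mM KCl, 1 mM each CaCl2 and MgCl2, and 0.01% Triton X-100. The MR121 substrate (1 μM final) was incubated with enzyme for 15 min at 30 °C, and activity was read by fluorescence quenching.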

Row | SMILES | IC50 [nM]
1 | O=C(c1ccc2[nH]nnc2c1)N1C[C@H]2CN(C(=O)c3cc4cc(OC(F)(F)F)ccc4[nH]3)C[C@@H]2C1 [Example 15.99] | 12
2 | Cc1cc(CCC(=O)N2C[C@@H]3CN(C(=O)c4ccc5[nH]nnc5c4)C[C@H]3C2)c(C(C)C)cc1C#N [Example 19.21, 4-[3-[(3aR,6aR)-5-(1H-benzotriazole-5-carbonyl)-1,3,3a,4,6,6a-hexahydropyrrolo[3,4-c]pyrrol-2-yl]-3-oxopropyl]-2-methyl-5-propan-2-ylbenzonitrile] | 3
3 | COc1cc(C#N)ccc1OCC(=O)N1C[C@@H]2CN(C(=O)c3ccc4[nH]nnc4c3)C[C@H]2C1 [Example 15.93] | 921
4 | O=C(CCc1cc(Cl)cc(Cl)c1)N1C[C@@H]2CN(C(=O)c3ccc4[nH]c(=O)oc4c3)C[C@@H]2C1 [Example 1.02, 6-((3aR,6aS)-5-(3-(3,5-dichlorophenyl)propanoyl)octahydropyrrolo[3,4-c]pyrrole-2-carbonyl)benzo[d]oxazol-2(3H)-one] | 77
5 | O=C(OCc1cc(Cl)cc(OC(F)(F)F)c1)N1C[C@@H]2CN(C(=O)c3ccc4[nH]nnc4c3)C[C@@H]2C1 [Example 4.27, (3aS,6aR)-5-(1H-benzotriazole-5-carbonyl)-hexahydro-pyrrolo[3,4-c]pyrrole-2-carboxylic acid 3-chloro-5-trifluoromethoxy-benzyl ester] | 4
6 | O=C(OCc1ccc(OC(F)(F)F)cc1)N1C[C@@H]2CN(C(=O)c3cc(F)c4[nH]nnc4c3)C[C@H]2C1 [Example 1.53, (3aS,6aS)-5-(7-fluoro-1H-benzotriazole-5-carbonyl)-hexahydro-pyrrolo[3,4-c]pyrrole-2-carboxylic acid 4-trifluoromethoxy-benzyl ester] | 52
7 | N#Cc1ccc(/C=C/C(=O)N2C[C@H]3CCN(C(=O)c4ccc5[nH]nnc5c4)C[C@@H]3C2)cc1 (single isomer, unassigned) [Example 15.33] | 328
8 | O=C(/C=C/c1cc(Cl)cc(C(F)(F)F)c1)N1CC[C@@H]2CN(C(=O)c3ccc4[nH]nnc4c3)C[C@@H]2CC1 [Example 1.27, (E)-1-((3aR,8aS)-2-(1H-benzo[d][1,2,3]triazole-5-carbonyl)octahydropyrrolo[3,4-d]azepin-6(7H)-yl)-3-(3-chloro-5-(trifluoromethyl)phenyl)prop-2-en-1-one] | 8
9 | O=C(CCc1ccc(-c2ccccc2)cc1)N1C[C@@H]2CN(C(=O)c3ccc4[nH]nnc4c3)C[C@H]2C1 [Example 15.65] | 3
10 | CC(C)(C)c1ccccc1OCC(=O)N1C[C@@H]2CN(C(=O)c3ccc4[nH]nnc4c3)C[C@H]2C1 [Example 19.16, 1-[(3aS,6aS)-5-(1H-benzotriazole-5-carbonyl)-hexahydro-pyrrolo[3,4-c]pyrrol-2-yl]-2-(2-tert-butyl-phenoxy)-ethanone] | 31
11 | CC(C)Oc1cc(C(=O)N2C[C@@H]3CN(C(=O)[C@@H]4CCc5[nH]nnc5C4)C[C@H]3C2)nc2ccccc12 [Example 19.25, [(3aS,6aS)-5-[(5R)-4,5,6,7-tetrahydro-1H-benzotriazole-5-carbonyl]-1,3,3a,4,6,6a-hexahydropyrrolo[3,4-c]pyrrol-2-yl]-(4-propan-2-yloxyquinolin-2-yl)methanone] | 15
12 | O=C(/C=C/c1ccc(-c2ccccn2)cc1)N1C[C@@H]2CN(C(=O)c3ccc4[nH]nnc4c3)C[C@H]2C1 [Example 15.81, (E)-1-[(3aR,6aR)-5-(1H-benzotriazole-5-carbonyl)-hexahydro-pyrrolo[3,4-c]pyrrol-2-yl]-3-(4-pyridin-2-yl-phenyl)-prop-2-en-1-one] | 19
13 | COc1ccc(CCC(=O)N2CC[C@@H]3CN(C(=O)c4ccc5[nH]nnc5c4)C[C@@H]3CC2)c(C(F)(F)F)c1 [Example 17.18, 1-((3aR,8aS)-2-(1H-benzo[d][1,2,3]triazole-5-carbonyl)octahydropyrrolo[3,4-d]azepin-6(7H)-yl)-3-(4-methoxy-2-(trifluoromethyl)phenyl)propan-1-one] | 14
14 | O=C(COc1ccc(OC(F)(F)F)cc1Br)N1C[C@@H]2CN(C(=O)c3ccc4[nH]nnc4c3)C[C@H]2C1 [Example 19.01, 1-[(3aS,6aS)-5-(1H-benzotriazole-5-carbonyl)-hexahydro-pyrrolo[3,4-c]pyrrol-2-yl]-2-(2-bromo-4-trifluoromethoxy-phenoxy)-ethanone] | 12
15 | O=C(OCc1cc(Cl)cc(Cl)c1)N1C[C@@H]2CN(C(=O)c3ccc4[nH]nnc4c3)C[C@H]2C1 [Example 4, (3aS,6aS)-3,5-Dichlorobenzyl 5-(1H-benzo[d][1,2,3]triazole-5-carbonyl)hexahydro-pyrrolo[3,4-c]pyrrole-2(1H)-carboxylate] | 8
16 | O=C(OCc1cc(Cl)cc(Cl)c1)N1C[C@@H]2CN(C(=O)c3ccc4[nH]ncc4c3)C[C@@H]2C1 [Example 1.07, (3aR,6aS)-3,5-dichlorobenzyl 5-(1H-indazole-5-carbonyl)hexahydropyrrolo[3,4-c]pyrrole-2(1H)-carboxylate] | 1030

Row | SMILES | IC50 [nM]
17 | CCOc1cc(C#N)ccc1OCC(=O)N1C[C@@H]2CN(C(=O)c3ccc4[nH]nnc4c3)C[C@H]2C1 [Example 19.08, 4-{2-[(3aS,6aS)-5-(1H-benzotriazole-5-carbonyl)-hexahydro-pyrrolo[3,4-c]pyrrol-2-yl]-2-oxo-ethoxy}-3-ethoxy-benzonitrile] | 36
18 | O=C(/C=C/c1ccc(OC(F)(F)F)cc1)N1CC[C@@H]2CN(C(=O)NCCc3cnn[nH]3)C[C@@H]2CC1 [Example 9.09, (3aR,8aS)-N-(2-(1H-1,2,3-triazol-5-yl)ethyl)-6-((E)-3-(4-(trifluoromethoxy)-phenyl)acryloyl)octahydropyrrolo[3,4-d]azepine-2(1H)-carboxamide] | 162
19 | O=C(/C=C/c1ccc(OC(F)F)cc1)N1CC[C@@H]2CN(C(=O)c3ccc4[nH]nnc4c3)C[C@@H]2CC1 [Example 15.21] | 5
20 | O=C(/C=C/c1ccccn1)N1CC[C@@H]2CN(C(=O)c3ccc4[nH]nnc4c3)C[C@@H]2CC1 [Example 15.16] | 5790
21 | O=C(CCc1ccc(OC(F)F)cc1)N1C[C@@H]2CN(C(=O)c3ccc4[nH]nnc4c3)C[C@H]2C1 [Example 17.03, 1-[(3aR,6aR)-5-(1H-benzotriazole-5-carbonyl)-hexahydro-pyrrolo[3,4-c]pyrrol-2-yl]-3-(4-difluoromethoxy-phenyl)-propan-1-one] | 16
22 | N#Cc1ccc(/C=C/C(=O)N2C[C@@H]3CN(C(=O)c4ccc5[nH]nnc5c4)C[C@H]3C2)c(F)c1 [Example 15.35] | 31
23 | Cc1ccc(/C=C/C(=O)N2CC[C@@H]3CN(C(=O)c4ccc5[nH]nnc5c4)C[C@@H]3CC2)cc1 [Example 15.07] | 21
24 | CS(=O)(=O)c1cc(Cl)cc(COC(=O)N2CC[C@@H]3CN(C(=O)c4ccc5[nH]nnc5c4)C[C@H]3C2)c1 (relative stereo) [Example 1.23, trans-2-(1H-benzotriazole-5-carbonyl)-octahydro-pyrrolo[3,4-c]pyridine-5-carboxylic acid 3-chloro-5-methanesulfonyl-benzyl ester] | 58
25 | O=C(CCc1ccc(OC(F)(F)F)cc1F)N1C[C@@H]2CN(C(=O)c3ccc4[nH]nnc4c3)C[C@H]2C1 [Example 17.04, 1-[(3aR,6aR)-5-(1H-benzotriazole-5-carbonyl)-hexahydro-pyrrolo[3,4-c]pyrrol-2-yl]-3-(2-fluoro-4-trifluoromethoxy-phenyl)-propan-1-one] | 8
26 | COc1cc(C(=O)N2C[C@H]3CN(C(=O)c4ccc5[nH]nnc5c4)C[C@@H]3C2)cc2ccccc12 [Example 19.15, (1H-benzotriazol-5-yl)-[(3aR,6aR)-5-(4-methoxy-naphthalene-2-carbonyl)-hexahydro-pyrrolo[3,4-c]pyrrol-2-yl]-methanone] | 20
27 | O=C(CCc1ccc(-c2ccccn2)cc1)N1C[C@@H]2CN(C(=O)c3ccc4[nH]nnc4c3)C[C@H]2C1 [Example 17.13, 1-[(3aR,6aR)-5-(1H-benzotriazole-5-carbonyl)-hexahydro-pyrrolo[3,4-c]pyrrol-2-yl]-3-(4-pyridin-2-yl-phenyl)-propan-1-one] | 31
28 | O=C(/C=C/c1ccc(OC(F)(F)F)cc1)N1C[C@H]2CCN(C(=O)c3ccc4[nH]nnc4c3)C[C@@H]2C1 (single isomer, unassigned) [Example 15.25] | 44
29 | O=C(OCc1cc(Cl)cc(Cl)c1)N1CC[C@@H]2CN(C(=O)c3ccc4[nH]nnc4c3)C[C@@H]2C1 [Example 10A, (3aR,7aS)-2-(1H-Benzotriazole-5-carbonyl)-octahydro-pyrrolo[3,4-c]pyridine-5-carboxylic acid 3,5-dichloro-benzyl ester] | 36
30 | O=C(/C=C/c1ccc(OC(F)(F)F)cc1)N1CC[C@@H]2CN(C(=O)N3CCc4[nH]ncc4C3)C[C@@H]2CC1 [Example 8.02] | 186
31 | O=C(/C=C/c1ccc(OC(F)F)cc1)N1C[C@@H]2CN(C(=O)c3ccc4[nH]nnc4c3)C[C@H]2C1 [Example 15.36, (E)-1-((3aR,6aR)-5-(1H-benzo[d][1,2,3]triazole-5-carbonyl)hexahydro-pyrrolo[3,4-c]pyrrol-2(1H)-yl)-3-(4-(difluoromethoxy)phenyl)-prop-2-en-1-one] | 3
32 | O=C(c1ccc2[nH]nnc2c1)N1C[C@H]2CN(C(=O)C3CCN(c4ccc(Cl)cc4)CC3)C[C@@H]2C1 [Example 19.23, [(3aR,6aR)-5-[1-(4-chlorophenyl)piperidine-4-carbonyl]-1,3,3a,4,6,6a-hexahydropyrrolo[3,4-c]pyrrol-2-yl]-(1H-benzotriazol-5-yl)methanone] | 25
